Laboratory results taken from ChEMBL document CHEMBL4364273, “Discovery of SHR1653, a Highly Potent and Selective OTR Antagonist with Improved Blood-Brain Barrier Penetration” (ACS Med Chem Lett, 2019).
≈ marks a conversion by molar mass, not a printed value.

How the values were obtained:
[1] = AUC (0 to 24 hrs) in Beagle dog at 2 mg/kg, po by LC-MS/MS analysis; format: ADME, organism-based, Canis lupus familiaris; parameters: time < 24 hr, dose 2 mg/kg, route oral; settings: in vivo
[2] = Hepatic clearance in dog liver microsomes by LC-MS/MS analysis; format: ADME, Canis lupus familiaris, Microsome
[3] = Tmax in Beagle dog at 2 mg/kg, po measured for 24 hrs by LC-MS/MS analysis; format: ADME, organism-based, Canis lupus familiaris; settings: in vivo
[4] = AUC (0 to 24 hrs) in Beagle dog at 20 mg/kg, po by LC-MS/MS analysis; format: ADME, organism-based, Canis lupus familiaris; parameters: time < 24 hr, dose 20 mg/kg, route oral; settings: in vivo
[5] = Solubility of compound in FASSIF at pH 6.5; format: physicochemical
[6] = Hepatic clearance in mouse liver microsomes by LC-MS/MS analysis; format: ADME, Microsome
[7] = AUC (0 to 24 hrs) in Sprague-Dawley rat at 2 mg/kg, po by LC-MS/MS analysis; format: ADME, organism-based; parameters: time < 24 hr, dose 2 mg/kg, route oral; settings: in vivo
[8] = Acute toxicity in rat assessed as increase in urinary output at 900 mg/kg measured for 7 days; format: organism-based; settings: in vivo, 168 h
[9] = Unbound fraction in Sprague-Dawley rat brain by LC-MS/MS analysis; format: ADME, tissue-based
[10] = Clearance in Beagle dog at 1 mg/kg, iv measured for 24 hrs by LC-MS/MS analysis; format: ADME, organism-based, Canis lupus familiaris; settings: in vivo
[11] = Half-life in Sprague-Dawley rat at 30 mg/kg, po measured for 24 hrs by LC-MS/MS analysis; format: ADME, organism-based; settings: in vivo
[12] = target: Voltage-gated inwardly rectifying potassium channel KCNH2 (Homo sapiens, UniProt Q12809); experiment: Inhibition of human ERG
[13] = Acute toxicity in rat assessed as effect on body weight at up to 300 mg/kg measured for 7 days; format: organism-based; settings: in vivo, 168 h
[14] = Cmax in Sprague-Dawley rat at 2 mg/kg, po measured for 24 hrs by LC-MS/MS analysis; format: ADME, organism-based; parameters: dose 2 mg/kg, route oral; settings: in vivo
[15] = Safety index, ratio of NOAEL in rat to EC50 for inhibition of oxytocin-induced contractile response in po dosed Sprague-Dawley rat; format: toxicity, organism-based; settings: in vivo
Homo sapiens [16] = species: Homo sapiens; experiment: Selectivity ratio of IC50 for human vasopressin V1A receptor expressed in HEK293 cells to IC50 for human OTR expressed in HEK293 cells; format: cell-based
[17] = Lipophilicity, log D of compound at pH 7.4; format: physicochemical; settings: buffer
[18] = Cmax in Sprague-Dawley rat at 30 mg/kg, po measured for 24 hrs by LC-MS/MS analysis; format: ADME, organism-based; parameters: dose 30 mg/kg, route oral; settings: in vivo
[19] = AUC (0 to 24 hrs) in anesthetized oxytocin-induced uterine contraction Sprague-Dawley rat model at 30 mg/kg, po; format: ADME, organism-based; parameters: dose 30 mg/kg, time < 24 hr, route oral; settings: in vivo
[20] = Half-life in nude mouse at 4 mg/kg, po measured for 24 hrs by LC-MS/MS analysis; format: ADME, organism-based; settings: in vivo
[21] = Hepatic clearance in human liver microsomes by LC-MS/MS analysis; format: ADME, Microsome
Rattus norvegicus [22] = experiment: Anti-premature ejaculation activity in anesthetized oxytocin-induced uterine contraction Sprague-Dawley rat model assessed as decrease in intraluminal uterine pressure administered orally for 20 mins and 1 hr later treated with oxytocin and measured for 15 to 30 mins relative to control; format: functional
[23] = Cmax in Beagle dog at 20 mg/kg, po measured for 24 hrs by LC-MS/MS analysis; format: ADME, organism-based, Canis lupus familiaris; parameters: dose 20 mg/kg, route oral; settings: in vivo
[24] = Cmax in nude mouse at 4 mg/kg, po measured for 24 hrs by LC-MS/MS analysis; format: ADME, organism-based; parameters: dose 4 mg/kg, route oral; settings: in vivo
[25] = Acute toxicity in rat assessed as effect on blood chemistry parameters up to 300 mg/kg measured for 7 days; format: organism-based; settings: in vivo, 168 h
[26] = Protein binding in human plasma; format: ADME, cell-free; settings: read-out: PPB (converted)
[27] = Unbound brain-to-plasma concentration ratio in Sprague-Dawley rat by LC-MS/MS analysis; format: ADME, cell-free; settings: read-out: K(p,uu,brain)
Cytochrome P450 3A4 [28] = target: T1, Cytochrome P450 3A4 (Homo sapiens, UniProt P08684); experiment: Inhibition of human recombinant CYP3A4 using testosterone as substrate; format: ADME
[29] = Acute toxicity in rat assessed as effect on hematological parameters up to 300 mg/kg measured for 7 days; format: organism-based; settings: in vivo, 168 h
[30] = Half-life in Beagle dog at 20 mg/kg, po measured for 24 hrs by LC-MS/MS analysis; format: ADME, organism-based, Canis lupus familiaris; settings: in vivo
[31] = Solubility of compound in PBS at pH 7.4; format: physicochemical
[32] = Hepatic clearance in rat liver microsomes by LC-MS/MS analysis; format: ADME, Microsome
Rattus norvegicus [33] = experiment: Anti-premature ejaculation activity in anesthetized oxytocin-induced uterine contraction Sprague-Dawley rat model assessed as decrease in intraluminal uterine pressure at 10 mg/kg, po treated for 20 mins and 1 hr later treated with oxytocin and measured for 15 to 30 mins relative to control; format: functional
[34] = AUC (0 to 24 hrs) in nude mouse at 4 mg/kg, po by LC-MS/MS analysis; format: ADME, organism-based; parameters: time < 24 hr, dose 4 mg/kg, route oral; settings: in vivo
[35] = Cmax in Sprague-Dawley rat at 150 mg/kg, po measured for 24 hrs by LC-MS/MS analysis; format: ADME, organism-based; parameters: dose 150 mg/kg, route oral; settings: in vivo
[36] = Plasma concentration in Sprague-Dawley rat by LC-MS/MS analysis; format: ADME, cell-free
Oxytocin receptor = target: T2, Oxytocin receptor (Homo sapiens, UniProt P30559); experiment: Antagonist activity at human OTR expressed in HEK293 cells assessed as decrease in calcium flux measured after 10 mins in […] by Fluo-4 dye based microplate reader based assay; format: functional, cell-based
T2 sequence (P30559 whole entry): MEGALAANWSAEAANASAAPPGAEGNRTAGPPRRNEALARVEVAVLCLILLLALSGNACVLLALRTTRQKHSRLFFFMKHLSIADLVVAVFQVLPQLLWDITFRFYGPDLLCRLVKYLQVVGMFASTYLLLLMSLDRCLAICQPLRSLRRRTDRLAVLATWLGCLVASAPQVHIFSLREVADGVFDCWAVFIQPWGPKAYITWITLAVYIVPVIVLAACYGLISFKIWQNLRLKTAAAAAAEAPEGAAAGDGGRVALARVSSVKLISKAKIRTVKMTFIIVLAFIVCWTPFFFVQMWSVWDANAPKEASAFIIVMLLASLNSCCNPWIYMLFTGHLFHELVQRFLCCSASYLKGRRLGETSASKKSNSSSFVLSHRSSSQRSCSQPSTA

Cytochrome P450 3A4 [37] = target: T1, Cytochrome P450 3A4; experiment: Inhibition of human recombinant CYP3A4 using midazolam as substrate; format: ADME
[38] = Tmax in nude mouse at 4 mg/kg, po measured for 24 hrs by LC-MS/MS analysis; format: ADME, organism-based; settings: in vivo
Homo sapiens [39] = species: Homo sapiens; experiment: Selectivity ratio of IC50 for human vasopressin V2 receptor expressed in HEK293 cells to IC50 for human OTR expressed in HEK293 cells; format: cell-based
[40] = Half-life in Beagle dog at 2 mg/kg, po measured for 24 hrs by LC-MS/MS analysis; format: ADME, organism-based, Canis lupus familiaris; settings: in vivo
Cytochrome P450 2C9 = Cytochrome P450 2C9 (Homo sapiens, UniProt P11712); experiment: Inhibition of human recombinant CYP2C9; format: ADME
[41] = Tmax in Sprague-Dawley rat at 30 mg/kg, po measured for 24 hrs by LC-MS/MS analysis; format: ADME, organism-based; settings: in vivo
Cytochrome P450 2C19 = Cytochrome P450 2C19 (Homo sapiens, UniProt P33261); experiment: Inhibition of human recombinant CYP2C19; format: ADME
[42] = AUC (0 to 24 hrs) in Sprague-Dawley rat at 150 mg/kg, po by LC-MS/MS analysis; format: ADME, organism-based; parameters: time < 24 hr, dose 150 mg/kg, route oral; settings: in vivo

T1 sequence (P08684 whole entry): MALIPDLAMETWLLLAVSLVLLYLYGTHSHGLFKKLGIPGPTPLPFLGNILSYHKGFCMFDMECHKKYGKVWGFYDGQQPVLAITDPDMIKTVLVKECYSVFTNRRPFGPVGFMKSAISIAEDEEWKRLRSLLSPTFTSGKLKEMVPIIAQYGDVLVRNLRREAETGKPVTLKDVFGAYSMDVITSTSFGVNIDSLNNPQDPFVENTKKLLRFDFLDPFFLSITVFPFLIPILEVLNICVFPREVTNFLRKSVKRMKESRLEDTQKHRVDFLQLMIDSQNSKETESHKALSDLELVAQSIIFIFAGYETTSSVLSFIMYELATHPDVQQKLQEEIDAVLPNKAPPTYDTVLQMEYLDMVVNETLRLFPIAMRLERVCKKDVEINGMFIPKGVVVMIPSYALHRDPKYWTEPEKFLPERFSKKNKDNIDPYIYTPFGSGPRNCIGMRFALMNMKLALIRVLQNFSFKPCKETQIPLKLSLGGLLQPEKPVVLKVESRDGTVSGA
Cytochrome P450 2C19, sequence (P33261 whole entry): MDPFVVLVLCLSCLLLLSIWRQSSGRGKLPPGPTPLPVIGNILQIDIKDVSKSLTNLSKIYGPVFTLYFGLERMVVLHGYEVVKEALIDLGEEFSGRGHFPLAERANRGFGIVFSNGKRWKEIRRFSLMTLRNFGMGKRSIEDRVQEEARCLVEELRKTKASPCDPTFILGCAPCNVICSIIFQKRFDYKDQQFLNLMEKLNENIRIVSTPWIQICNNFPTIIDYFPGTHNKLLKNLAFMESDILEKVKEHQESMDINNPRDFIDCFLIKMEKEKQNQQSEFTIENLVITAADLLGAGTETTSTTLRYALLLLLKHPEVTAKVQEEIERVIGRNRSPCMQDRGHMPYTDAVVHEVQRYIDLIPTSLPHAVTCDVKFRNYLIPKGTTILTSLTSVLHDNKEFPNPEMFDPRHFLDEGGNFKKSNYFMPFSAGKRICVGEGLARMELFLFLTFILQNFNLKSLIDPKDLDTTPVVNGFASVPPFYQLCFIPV
Cytochrome P450 2C9, sequence (P11712 whole entry): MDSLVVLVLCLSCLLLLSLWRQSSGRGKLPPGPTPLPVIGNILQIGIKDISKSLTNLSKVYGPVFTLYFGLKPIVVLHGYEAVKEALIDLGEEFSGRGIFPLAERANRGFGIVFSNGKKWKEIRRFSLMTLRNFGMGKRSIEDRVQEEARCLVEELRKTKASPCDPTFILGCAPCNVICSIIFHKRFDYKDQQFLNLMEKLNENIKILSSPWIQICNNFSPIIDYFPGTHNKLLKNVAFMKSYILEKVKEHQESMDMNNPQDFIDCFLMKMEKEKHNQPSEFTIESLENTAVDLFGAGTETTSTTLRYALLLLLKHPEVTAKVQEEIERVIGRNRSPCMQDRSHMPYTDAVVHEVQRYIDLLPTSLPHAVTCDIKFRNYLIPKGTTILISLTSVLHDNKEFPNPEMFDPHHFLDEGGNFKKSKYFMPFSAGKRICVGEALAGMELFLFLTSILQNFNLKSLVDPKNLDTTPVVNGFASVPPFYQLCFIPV
Voltage-gated inwardly rectifying potassium channel KCNH2, sequence (Q12809 whole entry): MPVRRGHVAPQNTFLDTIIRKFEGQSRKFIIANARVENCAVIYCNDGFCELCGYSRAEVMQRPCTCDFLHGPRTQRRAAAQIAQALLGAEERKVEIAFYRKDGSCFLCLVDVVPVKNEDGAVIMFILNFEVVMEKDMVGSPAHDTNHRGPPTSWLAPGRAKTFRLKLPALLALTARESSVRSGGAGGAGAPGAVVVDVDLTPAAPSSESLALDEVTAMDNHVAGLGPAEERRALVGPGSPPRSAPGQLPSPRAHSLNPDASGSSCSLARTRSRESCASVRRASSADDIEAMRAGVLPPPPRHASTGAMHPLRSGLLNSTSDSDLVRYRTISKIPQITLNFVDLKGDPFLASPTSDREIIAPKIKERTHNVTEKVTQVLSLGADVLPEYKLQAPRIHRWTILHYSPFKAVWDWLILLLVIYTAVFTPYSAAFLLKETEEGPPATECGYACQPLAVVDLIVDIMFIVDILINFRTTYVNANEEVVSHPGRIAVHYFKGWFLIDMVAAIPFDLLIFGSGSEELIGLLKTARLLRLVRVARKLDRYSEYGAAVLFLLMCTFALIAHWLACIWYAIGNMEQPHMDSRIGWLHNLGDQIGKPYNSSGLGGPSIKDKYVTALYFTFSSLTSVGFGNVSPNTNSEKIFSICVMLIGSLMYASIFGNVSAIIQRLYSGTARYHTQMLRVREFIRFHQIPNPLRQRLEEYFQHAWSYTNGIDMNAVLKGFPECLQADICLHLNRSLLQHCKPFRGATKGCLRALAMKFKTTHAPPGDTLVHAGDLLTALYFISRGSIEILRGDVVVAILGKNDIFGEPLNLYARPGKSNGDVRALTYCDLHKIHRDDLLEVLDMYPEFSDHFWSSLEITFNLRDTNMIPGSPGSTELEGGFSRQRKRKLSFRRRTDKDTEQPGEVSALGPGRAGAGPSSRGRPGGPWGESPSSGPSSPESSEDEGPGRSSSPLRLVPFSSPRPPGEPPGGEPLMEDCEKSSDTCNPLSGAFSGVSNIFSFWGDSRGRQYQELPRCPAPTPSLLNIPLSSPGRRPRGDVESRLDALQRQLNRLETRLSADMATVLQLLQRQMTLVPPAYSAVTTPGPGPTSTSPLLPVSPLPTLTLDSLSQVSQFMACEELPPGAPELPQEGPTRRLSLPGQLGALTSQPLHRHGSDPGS

SMILES: COCc1nnc(N2C[C@@H]3C[C@]3(c3ccc(F)cc3Cl)C2)n1-c1ccc(OC)nc1
- AUC(0-t) at 24 h [1]: 3830 ng·h/mL
- CLhep predicted [2]: 20.3 mL/min/kg
- Tmax [3]: 0.75 h
- AUC(0-t) at 24 h [4]: 58700 ng·h/mL
- solubility [5]: 108 µM (≈ 46.2 µg/mL)
- CLhep predicted [6]: 77.4 mL/min/kg
- AUC(0-t) at 24 h [7]: 1680 ng·h/mL
- Activity [8]: Toxic
- fraction unbound [9]: 0.0166
- clearance [10]: 7.2 mL/min/kg
- half-life [11]: 2.23 h
- IC50 [12]: 16 µM
- Activity [13]: Non-Toxic
- Cmax [14]: 350 ng/mL
- selectivity ratio [15]: 10
- Ratio IC50 (Homo sapiens [16]): 192
- logD [17]: 2.86
- Cmax [18]: 3300 ng/mL
- AUC(0-t) at 24 h [19]: 28300 ng·h/mL
- half-life [20]: 1.9 h
- CLhep predicted [21]: 14.8 mL/min/kg
- ED (Rattus norvegicus [22]): 30 mg/kg
- inhibition (Rattus norvegicus [22]): Dose-dependent effect
- Cmax [23]: 13500 ng/mL
- Cmax [24]: 330 ng/mL
- Activity [25]: Non-Toxic
- fraction unbound [26]: 0.0352
- Kp uu [27]: 0.188
- IC50 (Cytochrome P450 3A4 [28]): 20 µM
- Activity [29]: Non-Toxic
- half-life [30]: 3.38 h
- solubility [31]: 420 µM (≈ 180 µg/mL)
- CLhep predicted [32]: 54.9 mL/min/kg
- inhibition in vivo at 10 mg/kg (Rattus norvegicus [33]): 17.6%
- AUC(0-t) at 24 h [34]: 548 ng·h/mL
- Cmax [35]: 14000 ng/mL
- Cp [36]: 1379 ng/mL
- IC50 (Oxytocin receptor): 0.015 µM
- IC50 (Cytochrome P450 3A4 [37]): > 30 µM
- Tmax [38]: 0.5 h
- Ratio IC50 (Homo sapiens [39]): 2170
- half-life [40]: 4.64 h
- IC50 (Cytochrome P450 2C9): > 30 µM
- Tmax [41]: 0.63 h
- IC50 (Cytochrome P450 2C19): 11 µM
- AUC(0-t) at 24 h [42]: 57200 ng·h/mL
